Test results from patent US10029986B2, “Alkynyl pyridine-substituted amide compound and pesticide” (NISSAN CHEMICAL INDUSTRIES, LTD., priority 2014, dated 2018).

Tests used:
[1] = test system: Colletotrichum lagenarium (Synonym: Colletotrichum orbiculare); test: Test on the preventive effect against cucumber anthracnose; type: in vivo; settings: 168 h, test solution A 500 ppm, 5 ml per pot sprayed, 2 days inoculation chamber then 7 days at 23° C.
Procedure: Compounds of the present invention were dissolved in a solvent for emulsion (a mixture of Sorpol (registered trademark) 3005XL (manufactured by Toho Chemical Industry Co., Ltd.): N-methylpyrrolidone: Solvesso (registered trademark) 200 (manufactured by ExxonMobil Chemical) in a ratio of 1:5:2) to prepare 20 wt % emulsifiable concentrates. Then, distilled water was added to dilute the emulsifiable concentrates to the prescribed concentration (500 ppm), and the obtained solutions were used in the following the Test Examples 1 to 8. Cucumber (varieties: Sagami Hanjiro) was seeded in 90 cm^3 plastic pot, and at the cotyledon stage, 5 ml per pot of test solution A of the compounds of the present invention was sprayed. One day later, a suspension of conidium of Colletotrichum lagenarium (Synonym: Colletotrichum orbiculare) was sprayed, and the pot was left for 2 days in the inoculation chamber at 25° C. under humidity of 100% RH. Thereafter, the pot was placed in an air-conditioned greenhouse (23° C.) and left at the same temperature for 7 days. Thereafter, the proportion of the formed lesion in the inoculated leaves were measured to calculate the control value in accordance with the same formula as in Test Example 1. The test was carried out in duplicate.

[2] = test system: Erysiphe polygoni (synonym: Erysiphe betae); test: Test on the preventive effect against cucumber powdery mildew; type: in vivo; settings: 216 h, test solution A 500 ppm, 5 ml per pot sprayed, cucumber cotyledon stage, 9 days after inoculation
Outline: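 Cucumber (Sagami Hanjiro) at cotyledon stage sprayed with 500 ppm compound (diluted from 20 wt% emulsifiable concentrate), air-dried, then inoculated with Erysiphe polygoni conidia. Kept 9 days at 20 °C in greenhouse; lesion area ratio scored in duplicate, control value = [1−(treated/untreated lesion ratio)]×100.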

[3] = test system: Blumeria graminis f. sp. tritici; test: Test on the preventive effect against wheat powdery mildew; type: in vivo; settings: 168 h, test solution A 500 ppm, 5 ml per pot, wheat 1.3-leaf stage, 7 days after inoculation
Outline: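 Compounds formulated as 20 wt % emulsifiable concentrates and diluted with water to 500 ppm; 5 ml per pot applied to wheat (Norin 61) at the 1.3-leaf stage. Conidia inoculated one day later in a 20° C greenhouse; lesion proportion scored after 7 days as control value, in duplicate.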

[4] = test system: Phaeosphaeria nodorum (Synonym: Septoria nodorum); test: Test on the preventive effect against wheat glume blotch; type: in vivo; settings: Parastagonospora nodorum, 144 h; test solution A 500 ppm, 5 ml per pot, wheat 1.3-leaf stage, 2 days inoculation chamber then 6 days at 20° C.
Outline: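 Wheat (cv. Haruyutaka) at 1.3-leaf stage sprayed with compound at 500 ppm as diluted emulsifiable concentrate, then inoculated one day later with conidial suspension. Kept 2 days at 20° C and 100% RH, then 6 days in a greenhouse at 20° C. Control value derived from lesion proportion on inoculated leaves; duplicate.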

Puccinia recondita = test: Test on the preventive effect against wheat leaf rust; type: in vivo; settings: 216 h, test solution A 500 ppm, 5 ml per pot, wheat 1.3-leaf stage, 1 day inoculation chamber then 8 days at 20° C.
Procedure: Compounds of the present invention were dissolved in a solvent for emulsion (a mixture of Sorpol (registered trademark) 3005XL (manufactured by Toho Chemical Industry Co., Ltd.): N-methylpyrrolidone: Solvesso (registered trademark) 200 (manufactured by ExxonMobil Chemical) in a ratio of 1:5:2) to prepare 20 wt % emulsifiable concentrates. Then, distilled water was added to dilute the emulsifiable concentrates to the prescribed concentration (500 ppm), and the obtained solutions were used in the following the Test Examples 1 to 8. Wheat (varieties: Norin 61) was seeded in 90 cm^3 plastic pot, and at 1.3-leaf stage, 5 ml per pot of test solution A of the compounds of the present invention was applied. One day after treatment, a suspension of spores of Puccinia recondita was sprayed to the wheat, and the pot was left in the inoculation chamber at 20° C. under humidity of 100% RH for 1 day. Thereafter, the pot was placed in an air-conditioned greenhouse (20° C.) for 8 days. The proportion of the formed lesion in the inoculated leaves were counted to calculate the control value in accordance with the same formula as in the Test Example 1. The test was carried out in duplicate.

SMILES | pest or weed control at 500 µg/mL [1] [%] | pest or weed control at 500 µg/mL [2] [%] | pest or weed control at 500 µg/mL [3] [%] | pest or weed control at 500 µg/mL [4] [%] | melting point [°C] | pest or weed control at 500 µg/mL (Puccinia recondita) [%]
Cc1nc(C(F)F)c(C(=O)NCC(C)c2ncc(C#CC3CC3)cc2Cl)s1 (centres unmarked) [9-002] | ≥ 70 | ≥ 70 | ≥ 70 | ≥ 70 |  | 
CC#Cc1cnc(CCNC(=O)c2ccccc2C(F)(F)F)c(Cl)c1 [1-001, N-[2-[3-chloro-5-(1-propynyl)pyridin-2-yl]ethyl]-2-(trifluoromethyl)benzamide] | ≥ 70 | ≥ 70 | ≥ 70 | ≥ 70 | 100 to 103 | 
CC(CNC(=O)c1cccnc1C(F)F)c1ncc(C#CC2CC2)cc1Cl (centres unmarked) [3-006] | ≥ 70 | ≥ 70 | ≥ 70 | ≥ 70 |  | 
CC(Cc1ncc(C#Cc2ccccc2)cc1Cl)NC(=O)c1cn(C)nc1C(F)F (centres unmarked) [8-027] | ≥ 70 | ≥ 70 | ≥ 70 | ≥ 70 |  | ≥ 70
Cn1cc(C(=O)NCC(F)(F)c2ncc(C#CC3CC3)cc2Cl)c(C(F)F)n1 [8-003] | ≥ 70 | ≥ 70 | ≥ 70 | ≥ 70 | 100 to 101 | 
CSC(CNC(=O)c1cccnc1C(F)F)c1ncc(C#CC2CC2)cc1Cl (centres unmarked) [3-020] | ≥ 70 | ≥ 70 | ≥ 70 | ≥ 70 |  | ≥ 70
CC(C)(C)C#Cc1cnc(CCNC(=O)c2cccnc2C(F)F)c(Cl)c1 [3-002] | ≥ 70 | ≥ 70 | ≥ 70 | ≥ 70 | 144 to 146 | ≥ 70
O=C(NCC(F)(F)c1ncc(C#CC2CC2)cc1Cl)c1cccnc1C(F)F [3-003, N-[2-[3-chloro-5-(cyclopropylethynyl)pyridin-2-yl]-2,2-difluoroethyl]-2-(difluoromethyl)nicotinamide] | ≥ 70 | ≥ 70 | ≥ 70 | ≥ 70 | 116 to 118 | ≥ 70
O=C(NCCc1ncc(C#CC2CC2)cc1Cl)c1ccccc1C(F)(F)F [1-002] | ≥ 70 | ≥ 70 | ≥ 70 | ≥ 70 | 105 to 108 | 
Cn1cc(C(=O)NCC(c2ncc(C#CC3CC3)cc2Cl)C2CC2)c(C(F)F)n1 (centres unmarked) [8-009] | ≥ 70 | ≥ 70 | ≥ 70 | ≥ 70 |  | ≥ 70
CC(Cc1ncc(C#CC2CC2)cc1Cl)NC(=O)c1cn(C)nc1C(F)F (centres unmarked) [8-024, N-[2-[3-chloro-5-(cyclopropylethynyl)pyridin-2-yl]-1-methylethyl]-3-difluoromethyl-1-methyl-1H-pyrazole-4-carboxamide] | ≥ 70 | ≥ 70 | ≥ 70 | ≥ 70 | 127 to 130 | ≥ 70
O=C(NCC(c1ncc(C#CC2CC2)cc1Cl)C1CC1)c1cccnc1C(F)F (centres unmarked) [3-008] | ≥ 70 | ≥ 70 | ≥ 70 | ≥ 70 |  | ≥ 70
Cn1cc(C(=O)NCCc2ncc(C#CC3CC3)cc2Cl)c(C(F)F)n1 [8-001] |  | ≥ 70 | ≥ 70 | ≥ 70 | 96 to 98 | ≥ 70
CSC(CNC(=O)c1cn(C)nc1C(F)F)c1ncc(C#CC2CC2)cc1Cl (centres unmarked) [8-020, N-[2-[3-chloro-5-(cyclopropylethynyl)pyridin-2-yl]-2-(methylthio)ethyl]-3-difluoromethyl-1-methyl-1H-pyrazole-4-carboxamide] | ≥ 70 | ≥ 70 | ≥ 70 |  |  | 
O=C(NCC(F)(F)c1ncc(C#CC2CC2)cc1Cl)c1ccccc1C(F)(F)F [1-005] | ≥ 70 | ≥ 70 | ≥ 70 | ≥ 70 | 137 to 139 | 
